Reference: patent US10004701B2, “Methods and compositions for treating infection” (UNIVERSITY OF ROCHESTER, priority 2012, dated 2018)
Where a name gives a salt, the structure may show the parent alone. Read-outs that look alike come from different tables or passages of the source.

Assays:
Test in all cases: AK assay 384-well format, Prestwick library screening
E. faecium = format: cell-based, Enterococcus faecium; conditions: 50 μM final drug concentration; for fold induction at 50 µM: Enterococcus faecium, 3 h
E. coli = format: cell-based, Escherichia coli; conditions: 50 μM final drug concentration; for fold induction at 50 µM: Escherichia coli, 3 h
[1] = tested on: S. aureus strain USA300-0114; format: cell-based, Staphylococcus aureus; conditions: 50 μM final drug concentration; for fold induction at 50 µM: Staphylococcus aureus, USA300, 3 h
E. cloacae = format: cell-based, Enterobacter cloacae; conditions: 50 μM final drug concentration; for fold induction at 50 µM: Enterobacter cloacae, 3 h
K. pneumoniae = format: cell-based, Klebsiella pneumoniae; conditions: 50 μM final drug concentration; for fold induction at 50 µM: Klebsiella pneumoniae, 3 h
[2] = tested on: A. baumannii strain 98-37-09; format: cell-based, Acinetobacter baumannii; conditions: 50 μM final drug concentration; for fold induction at 50 µM: Acinetobacter baumannii, 983709, 3 h
P. aeruginosa = format: cell-based, Pseudomonas aeruginosa; conditions: 50 μM final drug concentration; for fold induction at 50 µM: Pseudomonas aeruginosa, 3 h
[3] = planktonic, cutoff for positive-scoring molecules 3-fold increase
[4] = 384-well format, cutoff for positive-scoring molecules 3-fold increase, read-out: AK-based Prestwick Library Screening Results, E. faecium (increase in extracellular AK activity)
[5] = 384-well format, cutoff for positive-scoring molecules 3-fold increase, read-out: AK-based Prestwick Library Screening Results, E. coli (increase in extracellular AK activity)
[6] = 384-well format, cutoff for positive-scoring molecules 3-fold increase, read-out: AK-based Prestwick Library Screening Results, S. aureus (increase in extracellular AK activity)
[7] = 384-well format, cutoff for positive-scoring molecules 3-fold increase, read-out: AK-based Prestwick Library Screening Results, E. cloacae (increase in extracellular AK activity)
[8] = 384-well format, cutoff for positive-scoring molecules 3-fold increase, read-out: AK-based Prestwick Library Screening Results, K. pneumoniae (increase in extracellular AK activity)
[9] = 384-well format, cutoff for positive-scoring molecules 3-fold increase, read-out: AK-based Prestwick Library Screening Results, A. baumannii (increase in extracellular AK activity)
[10] = 384-well format, cutoff for positive-scoring molecules 3-fold increase, read-out: AK-based Prestwick Library Screening Results, P. aeruginosa (increase in extracellular AK activity)
[11] = planktonic E. faecium, 384-well, cutoff for positive-scoring molecules 3-fold increase, read-out: AK-based Prestwick Library Screening Results: E. faecium (increase in extracellular AK activity)
[12] = planktonic E. coli, 384-well, cutoff for positive-scoring molecules 3-fold increase, read-out: AK-based Prestwick Library Screening Results: E. coli (increase in extracellular AK activity)
[13] = planktonic S. aureus, 384-well, cutoff for positive-scoring molecules 3-fold increase, read-out: AK-based Prestwick Library Screening Results: S. aureus (increase in extracellular AK activity)
[14] = planktonic E. cloacae, 384-well, cutoff for positive-scoring molecules 3-fold increase, read-out: AK-based Prestwick Library Screening Results: E. cloacae (increase in extracellular AK activity)
[15] = planktonic K. pneumoniae, 384-well, cutoff for positive-scoring molecules 3-fold increase, read-out: AK-based Prestwick Library Screening Results: K. pneumoniae (increase in extracellular AK activity)
[16] = planktonic A. baumannii, 384-well, cutoff for positive-scoring molecules 3-fold increase, read-out: AK-based Prestwick Library Screening Results: A. baumannii (increase in extracellular AK activity)
[17] = planktonic P. aeruginosa, 384-well, cutoff for positive-scoring molecules 3-fold increase, read-out: AK-based Prestwick Library Screening Results: P. aeruginosa (increase in extracellular AK activity)

## CC(C)[N+](C)(CCOC(=O)C1c2ccccc2Oc2ccccc21)C(C)C [Propantheline bromide]
E. faecium; planktonic, cutoff for positive-scoring molecules 3-fold increase, read-out: AK-based Prestwick Library Screening Results, E. faecium (fold increase in extracellular AK activity)
  fold induction at 50 µM: 0.8
E. coli; planktonic, cutoff for positive-scoring molecules 3-fold increase, read-out: AK-based Prestwick Library Screening Results, E. coli (fold increase in extracellular AK activity)
  fold induction at 50 µM: 0.9
[1]; planktonic, cutoff for positive-scoring molecules 3-fold increase, read-out: AK-based Prestwick Library Screening Results, S. aureus (fold increase in extracellular AK activity)
  fold induction at 50 µM: 0.8
E. cloacae; planktonic, cutoff for positive-scoring molecules 3-fold increase, read-out: AK-based Prestwick Library Screening Results, E. cloacae (fold increase in extracellular AK activity)
  fold induction at 50 µM: 1.3
K. pneumoniae; planktonic, cutoff for positive-scoring molecules 3-fold increase, read-out: AK-based Prestwick Library Screening Results, K. pneumoniae (fold increase in extracellular AK activity)
  fold induction at 50 µM: 0.8
[2]; planktonic, cutoff for positive-scoring molecules 3-fold increase, read-out: AK-based Prestwick Library Screening Results, A. baumannii (fold increase in extracellular AK activity)
  fold induction at 50 µM: 1
P. aeruginosa; planktonic, cutoff for positive-scoring molecules 3-fold increase, read-out: AK-based Prestwick Library Screening Results, P. aeruginosa (fold increase in extracellular AK activity)
  fold induction at 50 µM: 0.9

## Carbinoxamine maleate salt
E. faecium; [3]
  AK-based Prestwick Library Screening Results, E. faecium (fold increase in extracellular AK activity): 0.8
E. coli; [3]
  AK-based Prestwick Library Screening Results, E. coli (fold increase in extracellular AK activity): 0.7
[1]; [3]
  AK-based Prestwick Library Screening Results, S. aureus (fold increase in extracellular AK activity): 0.6
E. cloacae; [3]
  AK-based Prestwick Library Screening Results, E. cloacae (fold increase in extracellular AK activity): 0.7
K. pneumoniae; [3]
  AK-based Prestwick Library Screening Results, K. pneumoniae (fold increase in extracellular AK activity): 0.6
[2]; [3]
  AK-based Prestwick Library Screening Results, A. baumannii (fold increase in extracellular AK activity): 0.7
P. aeruginosa; [3]
  AK-based Prestwick Library Screening Results, P. aeruginosa (fold increase in extracellular AK activity): 0.6

## CNCCC=C1c2ccccc2CCc2ccccc21 [Nortriptyline hydrochloride]
E. faecium; [4]
  fold induction at 50 µM: 0.9
E. coli; [5]
  fold induction at 50 µM: 0.9
[1]; [6]
  fold induction at 50 µM: 1
E. cloacae; [7]
  fold induction at 50 µM: 0.9
K. pneumoniae; [8]
  fold induction at 50 µM: 0.7
[2]; [9]
  fold induction at 50 µM: 0.9
P. aeruginosa; [10]
  fold induction at 50 µM: 0.8

## Butirosin disulfate salt
E. faecium; [3]
  AK-based Prestwick Library Screening Results, E. faecium (fold increase in extracellular AK activity): 0.8
E. coli; planktonic, […]
  AK-based Prestwick Library Screening Results, E. coli (fold increase in extracellular AK activity): 0.5
[1]; [3]
  AK-based Prestwick Library Screening Results, S. aureus (fold increase in extracellular AK activity): 0.5
E. cloacae; [3]
  AK-based Prestwick Library Screening Results, E. cloacae (fold increase in extracellular AK activity): 0.4
K. pneumoniae; [3]
  AK-based Prestwick Library Screening Results, K. pneumoniae (fold increase in extracellular AK activity): 0.5
[2]; [3]
  AK-based Prestwick Library Screening Results, A. baumannii (fold increase in extracellular AK activity): 0.5
P. aeruginosa; [3]
  AK-based Prestwick Library Screening Results, P. aeruginosa (fold increase in extracellular AK activity): 0.5

## Cc1c(Nc2ncccc2C(=O)O)cccc1C(F)(F)F [Flunixin meglumine]
E. faecium; planktonic, […], read-out: AK-based Prestwick Library Screening Results, E. faecium (fold increase in extracellular AK activity)
  fold induction at 50 µM: 0.6
E. coli; planktonic, […], read-out: AK-based Prestwick Library Screening Results, E. coli (fold increase in extracellular AK activity)
  fold induction at 50 µM: 0.6
[1]; planktonic, […], read-out: AK-based Prestwick Library Screening Results, S. aureus (fold increase in extracellular AK activity)
  fold induction at 50 µM: 0.5
E. cloacae; planktonic, […], read-out: AK-based Prestwick Library Screening Results, E. cloacae (fold increase in extracellular AK activity)
  fold induction at 50 µM: 1
K. pneumoniae; planktonic, […], read-out: AK-based Prestwick Library Screening Results, K. pneumoniae (fold increase in extracellular AK activity)
  fold induction at 50 µM: 0.5
[2]; planktonic, […], read-out: AK-based Prestwick Library Screening Results, A. baumannii (fold increase in extracellular AK activity)
  fold induction at 50 µM: 0.5
P. aeruginosa; planktonic, […], read-out: AK-based Prestwick Library Screening Results, P. aeruginosa (fold increase in extracellular AK activity)
  fold induction at 50 µM: 0.6

## C[C@H](N)[C@H](O)c1cccc(O)c1 [Metaraminol bitartrate]
E. faecium; [4]
  fold induction at 50 µM: 1
E. coli; [5]
  fold induction at 50 µM: 1
[1]; [6]
  fold induction at 50 µM: 0.7
E. cloacae; [7]
  fold induction at 50 µM: 1.3
K. pneumoniae; [8]
  fold induction at 50 µM: 0.8
[2]; [9]
  fold induction at 50 µM: 0.9
P. aeruginosa; [10]
  fold induction at 50 µM: 0.8

## CCN(CC)CCNC(=O)COc1ccc(OC)cc1 [Mefexamide hydrochloride]
E. faecium; [11]
  fold induction at 50 µM: 1
E. coli; [12]
  fold induction at 50 µM: 1.2
[1]; [13]
  fold induction at 50 µM: 0.9
E. cloacae; [14]
  fold induction at 50 µM: 1.3
K. pneumoniae; [15]
  fold induction at 50 µM: 0.9
[2]; [16]
  fold induction at 50 µM: 1
P. aeruginosa; [17]
  fold induction at 50 µM: 1.1

## CN1C(C(=O)Nc2ccccn2)=C(O)c2ccccc2S1(=O)=O [Piroxicam]
E. faecium; [11]
  fold induction at 50 µM: 1.1
E. coli; [12]
  fold induction at 50 µM: 1.2
[1]; [13]
  fold induction at 50 µM: 1.4
E. cloacae; [14]
  fold induction at 50 µM: 1.4
K. pneumoniae; [15]
  fold induction at 50 µM: 1
[2]; [16]
  fold induction at 50 µM: 1
P. aeruginosa; [17]
  fold induction at 50 µM: 1.2

## CCN(CC)CCOCCOC(=O)C1(c2ccccc2)CCCC1 [Carbetapentane citrate]
E. faecium; planktonic, cutoff for positive 3-fold increase, read-out: AK-based Prestwick Library Screening Results, E. faecium (fold increase in extracellular AK activity)
  fold induction at 50 µM: 1
E. coli; planktonic, cutoff for positive 3-fold increase, read-out: AK-based Prestwick Library Screening Results, E. coli (fold increase in extracellular AK activity)
  fold induction at 50 µM: 1.4
[1]; planktonic, cutoff for positive 3-fold increase, read-out: AK-based Prestwick Library Screening Results, S. aureus (fold increase in extracellular AK activity)
  fold induction at 50 µM: 1.1
E. cloacae; planktonic, cutoff for positive 3-fold increase, read-out: AK-based Prestwick Library Screening Results, E. cloacae (fold increase in extracellular AK activity)
  fold induction at 50 µM: 1.4
K. pneumoniae; planktonic, cutoff for positive 3-fold increase, read-out: AK-based Prestwick Library Screening Results, K. pneumoniae (fold increase in extracellular AK activity)
  fold induction at 50 µM: 1
[2]; planktonic, cutoff for positive 3-fold increase, read-out: AK-based Prestwick Library Screening Results, A. baumannii (fold increase in extracellular AK activity)
  fold induction at 50 µM: 1.4
P. aeruginosa; planktonic, cutoff for positive 3-fold increase, read-out: AK-based Prestwick Library Screening Results, P. aeruginosa (fold increase in extracellular AK activity)
  fold induction at 50 µM: 1.2

## CCOC1O[C@H]([C@@H](COCc2ccccc2)OCc2ccccc2)[C@H](OCc2ccccc2)[C@H]1O (stereo partly shown) [Tribenoside]
E. faecium; planktonic E. faecium, positive cutoff 3-fold increase, read-out: AK-based Prestwick library screening result, E. faecium (fold increase in extracellular AK activity)
  fold induction at 50 µM: 1.1
E. coli; planktonic E. coli, positive cutoff 3-fold increase, read-out: AK-based Prestwick library screening result, E. coli (fold increase in extracellular AK activity)
  fold induction at 50 µM: 0.9
[1]; planktonic S. aureus, positive cutoff 3-fold increase, read-out: AK-based Prestwick library screening result, S. aureus (fold increase in extracellular AK activity)
  fold induction at 50 µM: 0.6
E. cloacae; planktonic E. cloacae, positive cutoff 3-fold increase, read-out: AK-based Prestwick library screening result, E. cloacae (fold increase in extracellular AK activity)
  fold induction at 50 µM: 1.5
K. pneumoniae; planktonic K. pneumoniae, positive cutoff 3-fold increase, read-out: AK-based Prestwick library screening result, K. pneumoniae (fold increase in extracellular AK activity)
  fold induction at 50 µM: 0.9
[2]; planktonic A. baumannii, positive cutoff 3-fold increase, read-out: AK-based Prestwick library screening result, A. baumannii (fold increase in extracellular AK activity)
  fold induction at 50 µM: 1.7
P. aeruginosa; planktonic P. aeruginosa, positive cutoff 3-fold increase, read-out: AK-based Prestwick library screening result, P. aeruginosa (fold increase in extracellular AK activity)
  fold induction at 50 µM: 1.1
